Results taken from patent EP0584797A2, “Novel cephalosporin compounds and processes for the preparation thereof” (LUCKY LTD., priority 1992, dated 1994).
Values after ≈ are worked out from the molar mass of the structure shown.

What was measured:
Assay in all cases: minimal inhibitory concentration, two-fold agar dilution
Type in all cases: cell-based
[1] = system: Providencia rettgeri ATCC 9250; settings: ATCC9250, Muller-Hinton agar, 37°C, 20 hours, read-out: MIC values against the standard strains
Procedure, shortened: (§1)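 Compounds were serially diluted two-fold into Mueller-Hinton agar, and each plate was spot-inoculated with the test strain at 10⁷ CFU per ml. Plates were incubated at 37°C for 20 hours before MIC values were read.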

[2] = system: Staphylococcus aureus ATCC 10537; settings: ATCC10537, Muller-Hinton agar, 37°C, 20 hours, read-out: MIC values against the standard strains
Procedure, shortened: as §1

[3] = system: Enterobacter cloacae ATCC 27508; settings: ATCC27508, Muller-Hinton agar, 37°C, 20 hours, read-out: MIC values against the standard strains
Procedure, shortened: as §1

[4] = system: Citrobacter freundii ATCC 8090; settings: ATCC8090, Muller-Hinton agar, 37°C, 20 hours, read-out: MIC values against the standard strains
Procedure, shortened: as §1

[5] = system: Staphylococcus epidermidis ATCC 12228; settings: ATCC12228, Muller-Hinton agar, 37°C, 20 hours, read-out: MIC values against the standard strains
Procedure, shortened: as §1

[6] = system: Klebsiella pneumoniae ATCC 10031; settings: ATCC10031, Muller-Hinton agar, 37°C, 20 hours, read-out: MIC values against the standard strains
Procedure, shortened: as §1

[7] = system: Pseudomonas aeruginosa ATCC 10145; settings: ATCC10145, Muller-Hinton agar, 37°C, 20 hours, read-out: MIC values against the standard strains
Procedure, shortened: as §1

[8] = system: Bacillus megaterium ATCC 9885; settings: Priestia megaterium, ATCC9885; Muller-Hinton agar; 37°C; 20 hours; read-out: MIC values against the standard strains
Procedure, shortened: as §1

[9] = system: Serratia marcescens ATCC 27117; settings: ATCC27117, Muller-Hinton agar, 37°C, 20 hours, read-out: MIC values against the standard strains
Procedure, shortened: as §1

[10] = system: Salmonella typhimurium ATCC 14028; settings: Salmonella enterica; Muller-Hinton agar; 37°C; 20 hours; read-out: MIC values against the standard strains
Procedure, shortened: as §1

[11] = system: Proteus mirabilis ATCC 25933; settings: ATCC25933, Muller-Hinton agar, 37°C, 20 hours, read-out: MIC values against the standard strains
Procedure, shortened: as §1

[12] = system: Escherichia coli ATCC 25922; settings: ATCC25922, Muller-Hinton agar, 37°C, 20 hours, read-out: MIC values against the standard strains
Procedure, shortened: as §1

[13] = system: Staphylococcus aureus ATCC 6538p; settings: ATCC6538P, Muller-Hinton agar, 37°C, 20 hours, read-out: MIC values against the standard strains
Procedure, shortened: as §1

[14] = system: Escherichia coli ATCC 10536; settings: ATCC10536, Muller-Hinton agar, 37°C, 20 hours, read-out: MIC values against the standard strains
Procedure, shortened: as §1

[15] = system: Enterobacter aerogenes ATCC 29751; settings: Klebsiella aerogenes, ATCC29751; Muller-Hinton agar; 37°C; 20 hours; read-out: MIC values against the standard strains
Procedure, shortened: as §1

[16] = system: Morganella morganii ATCC 8076h; settings: ATCC8076H, Muller-Hinton agar, 37°C, 20 hours, read-out: MIC values against the standard strains
Procedure, shortened: as §1

[17] = system: Micrococcus luteus ATCC 9341; settings: ATCC9341, Muller-Hinton agar, 37°C, 20 hours, read-out: MIC values against the standard strains
Procedure, shortened: as §1

[18] = system: Pseudomonas aeruginosa ATCC 25619; settings: ATCC25619, Muller-Hinton agar, 37°C, 20 hours, read-out: MIC values against the standard strains
Procedure, shortened: as §1

[19] = system: Bacillus cereus ATCC 11778; settings: ATCC11778, Muller-Hinton agar, 37°C, 20 hours, read-out: MIC values against the standard strains
Procedure, shortened: as §1

[20] = system: Proteus vulgaris ATCC 6059; settings: ATCC6059, Muller-Hinton agar, 37°C, 20 hours, read-out: MIC values against the standard strains
Procedure, shortened: as §1

[21] = system: Shigella sonnei ATCC 11060; settings: ATCC11060, Muller-Hinton agar, 37°C, 20 hours, read-out: MIC values against the standard strains
Procedure, shortened: as §1

[22] = system: Shigella flexneri ATCC 11836; settings: ATCC11836, Muller-Hinton agar, 37°C, 20 hours, read-out: MIC values against the standard strains
Procedure, shortened: as §1

[23] = system: Acinetobacter calcoaceticus ATCC 15437; settings: ATCC15437, Muller-Hinton agar, 37°C, 20 hours, read-out: MIC values against the standard strains
Procedure, shortened: as §1

[24] = system: Pseudomonas aeruginosa ATCC 27853; settings: ATCC27853, Muller-Hinton agar, 37°C, 20 hours, read-out: MIC values against the standard strains
Procedure, shortened: as §1

[25] = system: Streptococcus faecalis ATCC 29212; settings: Enterococcus faecalis, ATCC29212; Muller-Hinton agar; 37°C; 20 hours; read-out: MIC values against the standard strains
Procedure, shortened: as §1

Row | SMILES | MIC [1] | MIC [2] | MIC [3] | MIC [4] | MIC [5] | MIC [6] | MIC [7] | MIC [8] | MIC [9] | MIC [10] | MIC [11] | MIC [12] | MIC [13] | MIC [14] | MIC [15] | MIC [16] | MIC [17] | MIC [18] | MIC [19] | MIC [20] | also measured
1 | CCO/N=C(\C(=O)N[C@@H]1C(=O)N2C(C(=O)[O-])=C(CSc3nc(N)c(N)c(N)[n+]3CC)CS[C@H]12)c1csc(N)n1 [Example 13, 7-[(Z)-2-(2-aminothiazol-4-yl)-2-(ethoxyimino)acetamido]-3-(4,5,6-triamino-1-ethylpyrimidinium-2-yl)thiomethyl-3-cephem-4-carboxylate] | 0.13 µg/mL (≈ 0.219 µM) | 0.25 µg/mL (≈ 0.42 µM) | 0.016 µg/mL (≈ 0.0269 µM) | 0.5 µg/mL (≈ 0.841 µM) | 0.13 µg/mL (≈ 0.219 µM) | 0.13 µg/mL (≈ 0.219 µM) | 64 µg/mL (≈ 108 µM) | 0.13 µg/mL (≈ 0.219 µM) | 1 µg/mL (≈ 1.68 µM) | 1 µg/mL (≈ 1.68 µM) | 2 µg/mL (≈ 3.36 µM) | 0.063 µg/mL (≈ 0.106 µM) | 0.5 µg/mL (≈ 0.841 µM) | 0.063 µg/mL (≈ 0.106 µM) | 2 µg/mL (≈ 3.36 µM) | 0.13 µg/mL (≈ 0.219 µM) | 0.13 µg/mL (≈ 0.219 µM) | 8 µg/mL (≈ 13.5 µM) | 64 µg/mL (≈ 108 µM) | 2 µg/mL (≈ 3.36 µM) | MIC [21]: 0.5 µg/mL (≈ 0.841 µM); MIC [22]: 0.5 µg/mL (≈ 0.841 µM); MIC [23]: 16 µg/mL (≈ 26.9 µM); MIC [24]: 32 µg/mL (≈ 53.8 µM); MIC [25]: > 128 µg/mL
2 | CCO/N=C(\C(=O)N[C@@H]1C(=O)N2C(C(=O)[O-])=C(CSc3nc(N)cc[n+]3CC)CS[C@H]12)c1csc(N)n1 [Example 14, 7-[(Z)-2-(2-aminothiazol-4-yl)-2-(ethoxyimino)acetamido]-3-(4-amino-1-ethylpyrimidinium-2-yl)thiomethyl-3-cephem-4-carboxylate] | 0.063 µg/mL (≈ 0.112 µM) | 0.25 µg/mL (≈ 0.443 µM) | 0.13 µg/mL (≈ 0.23 µM) | 0.13 µg/mL (≈ 0.23 µM) | 0.25 µg/mL (≈ 0.443 µM) | 0.13 µg/mL (≈ 0.23 µM) | 64 µg/mL (≈ 113 µM) | 0.25 µg/mL (≈ 0.443 µM) | 1 µg/mL (≈ 1.77 µM) | 1 µg/mL (≈ 1.77 µM) | 2 µg/mL (≈ 3.54 µM) | 0.063 µg/mL (≈ 0.112 µM) | 0.5 µg/mL (≈ 0.885 µM) | 0.13 µg/mL (≈ 0.23 µM) | 1 µg/mL (≈ 1.77 µM) | 0.13 µg/mL (≈ 0.23 µM) | 0.25 µg/mL (≈ 0.443 µM) | 8 µg/mL (≈ 14.2 µM) | 32 µg/mL (≈ 56.7 µM) | 2 µg/mL (≈ 3.54 µM) | MIC [21]: 0.25 µg/mL (≈ 0.443 µM); MIC [22]: 0.25 µg/mL (≈ 0.443 µM); MIC [23]: 16 µg/mL (≈ 28.3 µM); MIC [24]: 32 µg/mL (≈ 56.7 µM); MIC [25]: > 128 µg/mL
3 | CCO/N=C(\C(=O)N[C@@H]1C(=O)N2C(C(=O)[O-])=C(CSc3nc(N)c(N)c(N)[n+]3CC)CS[C@H]12)c1nsc(N)n1 [Example 15, 7-[(Z)-2-(5-amino-1,2,4-thiadiazol-3-yl)-2-(ethoxyimino)acetamido]-3-(4,5,6-triamino-1-ethylpyrimidinium-2-yl)thiomethyl-3-cephem-4-carboxylate] | ≤ 0.008 µg/mL | 0.25 µg/mL (≈ 0.42 µM) | 0.031 µg/mL (≈ 0.052 µM) | 0.5 µg/mL (≈ 0.839 µM) | 0.25 µg/mL (≈ 0.42 µM) | 0.016 µg/mL (≈ 0.0269 µM) | 8 µg/mL (≈ 13.4 µM) | 0.13 µg/mL (≈ 0.218 µM) | 0.5 µg/mL (≈ 0.839 µM) | 0.5 µg/mL (≈ 0.839 µM) | 1 µg/mL (≈ 1.68 µM) | 0.063 µg/mL (≈ 0.106 µM) | 0.5 µg/mL (≈ 0.839 µM) | 0.063 µg/mL (≈ 0.106 µM) | 0.063 µg/mL (≈ 0.106 µM) | ≤ 0.008 µg/mL | 0.063 µg/mL (≈ 0.106 µM) | 1 µg/mL (≈ 1.68 µM) | 32 µg/mL (≈ 53.7 µM) | 1 µg/mL (≈ 1.68 µM) | MIC [21]: 0.25 µg/mL (≈ 0.42 µM); MIC [22]: 0.25 µg/mL (≈ 0.42 µM); MIC [23]: 4 µg/mL (≈ 6.71 µM); MIC [24]: 2 µg/mL (≈ 3.36 µM); MIC [25]: 32 µg/mL (≈ 53.7 µM)
